Measured values as given in PubChem BioAssay AID1963444 (Molecular Pharmacology Branch, DTP, NCI, 2024).

System: HSSY-II complex spheroid growth, percent test/control
Assay: Anticancer human tumor HSSY-II cell line growth inhibition [Asc];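 also: spheroids exposed to drug for 7 days before reading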
Settings: for IC50: curve of first compound; for viability, T/C: stronger effect = lower value
Procedure, shortened: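 Tumor cells were grown as multicellular spheroids with stromal HUVEC and mesenchymal stem cells and treated singly or in combination. Concentrations fell in half-log steps from the clinical Cmax, or from 10 microM where none was known.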

[1] = second compound 0.03 µM, first compound 0.0316 µM
[2] = second compound 0.03 µM, first compound 0.1 µM
[3] = second compound 0.03 µM, first compound 0.316 µM
[4] = second compound 0.03 µM, first compound 1 µM
[5] = second compound 0.03 µM, first compound 3.16 µM
[6] = second compound 0.03 µM, first compound 10 µM
[7] = second compound 0.0949 µM, first compound 0.0316 µM
[8] = second compound 0.0949 µM, first compound 0.1 µM
[9] = second compound 0.0949 µM, first compound 0.316 µM
[10] = second compound 0.0949 µM, first compound 1 µM
[11] = second compound 0.0949 µM, first compound 3.16 µM
[12] = second compound 0.0949 µM, first compound 10 µM
[13] = second compound 0.3 µM, first compound 0.0316 µM
[14] = second compound 0.3 µM, first compound 0.1 µM
[15] = second compound 0.3 µM, first compound 0.316 µM
[16] = second compound 0.3 µM, first compound 1 µM
[17] = second compound 0.3 µM, first compound 3.16 µM
[18] = second compound 0.3 µM, first compound 10 µM
[19] = second compound 0.949 µM, first compound 0.0316 µM
[20] = second compound 0.949 µM, first compound 0.1 µM
[21] = second compound 0.949 µM, first compound 0.316 µM
[22] = second compound 0.949 µM, first compound 1 µM
[23] = second compound 0.949 µM, first compound 3.16 µM
[24] = second compound 0.949 µM, first compound 10 µM
[25] = second compound 3 µM, first compound 0.0316 µM
[26] = second compound 3 µM, first compound 0.1 µM
[27] = second compound 3 µM, first compound 0.316 µM
[28] = second compound 3 µM, first compound 1 µM
[29] = second compound 3 µM, first compound 3.16 µM
[30] = second compound 3 µM, first compound 10 µM

| SMILES | IC50 (second compound 0.03 µM) [nM] | IC50 (second compound 0.0949 µM) [nM] | IC50 (second compound 0.3 µM) [nM] | IC50 (second compound 0.949 µM) [nM] | IC50 (second compound 3 µM) [nM] | viability, T/C [1] [%] | viability, T/C [2] [%] | viability, T/C [3] [%] | viability, T/C [4] [%] | viability, T/C [7] [%] | viability, T/C [8] [%] | viability, T/C [9] [%] | viability, T/C [10] [%] | viability, T/C [13] [%] | viability, T/C [14] [%] | viability, T/C [15] [%] | viability, T/C [16] [%] | viability, T/C [19] [%] | viability, T/C [20] [%] | viability, T/C [21] [%] | other results |
| --- | --- | --- | --- | --- | --- | --- | --- | --- | --- | --- | --- | --- | --- | --- | --- | --- | --- | --- | --- | --- | --- |
| C#Cc1c(F)ccc2cc(O)cc(-c3ncc4c(N5CC6CCC(C5)N6)nc(OCC56CCCN5CC(F)C6)nc4c3F)c12 (stereo not given) + CCN1C(C(=O)NC23CCC(C(=O)O)(CC2)CC3)C(c2cccc(Cl)c2F)C2(C(=O)Nc3cc(Cl)ccc32)C12CCCCC2 | 5960 | 3250 | < 31.6 | < 31.6 | < 31.6 | 91.6 | 96.6 | 91.1 | 90.7 | 52.4 | 62.3 | 65.7 | 59 | 24.8 | 27.5 | 26 | 20.6 | 7.03 | 7.37 | 6.79 | viability, T/C [5]: 80.8%; viability, T/C [6]: 24.9%; viability, T/C [11]: 50.6%; viability, T/C [12]: 9.38%; viability, T/C [17]: 20.2%; viability, T/C [18]: 0.94%; viability, T/C [22]: 5.65%; viability, T/C [23]: 5.67%; viability, T/C [24]: 0.22%; viability, T/C [25]: 2.13%; viability, T/C [26]: 2.33%; viability, T/C [27]: 2.2%; viability, T/C [28]: 1.74%; viability, T/C [29]: 1.34%; viability, T/C [30]: 0.27% |
| C=C(F)C(=O)N1CCN(c2nc(OCC3CCCN3C)nc3c2CCN(c2cccc4cccc(Cl)c24)C3)CC1CC#N (stereo not given) + CCN1C(C(=O)NC23CCC(C(=O)O)(CC2)CC3)C(c2cccc(Cl)c2F)C2(C(=O)Nc3cc(Cl)ccc32)C12CCCCC2 | 1090 | 340 | < 31.6 | < 31.6 | < 31.6 | 93.7 | 82.3 | 77.1 | 55.2 | 64.5 | 66.6 | 49.1 | 26.5 | 26.3 | 23.1 | 19.9 | 13.4 | 8.79 | 7.11 | 6.61 | viability, T/C [5]: 1.72%; viability, T/C [6]: 0.13%; viability, T/C [11]: 0.75%; viability, T/C [12]: 0.1%; viability, T/C [17]: 0.42%; viability, T/C [18]: 0.12%; viability, T/C [22]: 3.73%; viability, T/C [23]: 0.07%; viability, T/C [24]: 0.12%; viability, T/C [25]: 3.47%; viability, T/C [26]: 2.72%; viability, T/C [27]: 2.77%; viability, T/C [28]: 1.35%; viability, T/C [29]: 0.15%; viability, T/C [30]: 0.21% |
| C=CC(=O)N1CCN(c2nc(=O)n(-c3c(C)ccnc3C(C)C)c3nc(-c4c(O)cccc4F)c(F)cc23)C(C)C1 (stereo not given) + CCN1C(C(=O)NC23CCC(C(=O)O)(CC2)CC3)C(c2cccc(Cl)c2F)C2(C(=O)Nc3cc(Cl)ccc32)C12CCCCC2 | 7300 | 2580 | < 31.6 | < 31.6 | < 31.6 | 87.5 | 89.6 | 89.5 | 88 | 60.3 | 63.9 | 65.2 | 62.7 | 25.3 | 26.3 | 26 | 23.6 | 7.57 | 7.88 | 7.75 | viability, T/C [5]: 84.7%; viability, T/C [6]: 36.9%; viability, T/C [11]: 47.3%; viability, T/C [12]: 18.4%; viability, T/C [17]: 20.9%; viability, T/C [18]: 9.83%; viability, T/C [22]: 6.93%; viability, T/C [23]: 6.22%; viability, T/C [24]: 6.06%; viability, T/C [25]: 2.1%; viability, T/C [26]: 2.5%; viability, T/C [27]: 2.3%; viability, T/C [28]: 2.77%; viability, T/C [29]: 2.35%; viability, T/C [30]: 1.69% |
| CNC(C)C(=O)NC1CN(S(=O)(=O)c2cccc(S(=O)(=O)N3CCC4CCC(C(=O)NC(c5ccccc5)c5ccccc5)N4C(=O)C(NC(=O)C(C)NC)C3)c2)CCC2CCC(C(=O)NC(c3ccccc3)c3ccccc3)N2C1=O (stereo not given) + CCN1C(C(=O)NC23CCC(C(=O)O)(CC2)CC3)C(c2cccc(Cl)c2F)C2(C(=O)Nc3cc(Cl)ccc32)C12CCCCC2 | > 1000 | 3.28 | < 3.16 | < 3.16 | < 3.16 | 65.6 | 69.1 | 66.8 | 63.1 | 36.8 | 39.5 | 39.1 | 37.5 | 13.3 | 11 | 14.3 | 11.2 | 1.39 | 1.14 | 0.75 | viability, T/C (second compound 0.03 µM, first compound 0.00316 µM): 76.3%; viability, T/C (second compound 0.03 µM, first compound 0.01 µM): 81.6%; viability, T/C (second compound 0.0949 µM, first compound 0.00316 µM): 49.2%; viability, T/C (second compound 0.0949 µM, first compound 0.01 µM): 48.4%; viability, T/C (second compound 0.3 µM, first compound 0.00316 µM): 13.5%; viability, T/C (second compound 0.3 µM, first compound 0.01 µM): 13.5%; viability, T/C (second compound 0.949 µM, first compound 0.00316 µM): 2.72%; viability, T/C (second compound 0.949 µM, first compound 0.01 µM): 1.74%; viability, T/C [22]: 1.15%; viability, T/C (second compound 3 µM, first compound 0.00316 µM): 0.64%; viability, T/C (second compound 3 µM, first compound 0.01 µM): 0.51%; viability, T/C [25]: 0.48%; viability, T/C [26]: 0.47%; viability, T/C [27]: 0.62%; viability, T/C [28]: 0.46% |
